Values quoted from earlier work as cited in US4835149A, “Solubilization of salts of pyridine-2-thiol-1-oxide” (BASF Corporation, priority 1986, dated 1989).

Legend:
[1] = not given; remark: listed apart in the source

[O-][n+]1ccccc1[S-].[O-][n+]1ccccc1[S-].[Zn+2] [zinc salt]
solubility of the zinc salt in a composition according to U.S. Pat. No. 3,636,213 (composition having a pH of about 8): at least 200 parts per million | solubility in water at pH 8 (pH of 8): 35 to 50 parts per million | solubility in water at pH 7 (water, pH 7): 10 to 20 parts per million | solubility in benzene ([1]; benzene): 3-5 p.p.m. | solubility in chloroform ([1]; chloroform): 3400 p.p.m. | solubility in dimethyl formamide ([1]; dimethyl formamide): 8100 p.p.m. | solubility in dimethyl sulfoxide ([1]; dimethyl sulfoxide): 5.13% | solubility in ethanol ([1]; ethanol): 310 p.p.m. | solubility in petroleum oils, and most common organic solvents ([1]; petroleum oils, and most common organic solvents, in words): substantially insoluble | solubility in water ([1]; water): 10-20 p.p.m.
